Measurements reported in the supplement of paper PMC11208160.

Experiment: recombinant UMI read abundance after kanamycin selection (control-corrected) (log10(CPM+1)); higher = more efficient recombination; extreme values may be limits of the assay; sequences stand for … in AGTGCAGAGAAAATCGGCCAGTTTTCTCTGCCTGCAGTCCGCATGCCGTGGGACCCCTTGGGTTCTAACCTGTTGCCTAGATTTATGCAGCGGACTGCCTTTCTCCCAAAGTGATAAACCGG…AGGTTGGTTTCACT; site = the 11-nt donor
How it was run: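 Reported values are log10(CPM+1) from a pooled Escherichia coli screen of donor and donor-binding-loop pairs for the IS621 bridge recombinase. Selection used IPTG (0.07 mM) plus kanamycin, against unselected plating, each in two replicates. Recombinant UMIs were amplified across the donor–target junction, sequenced, converted to CPM, averaged over replicates and scaled by control-derived factors.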
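Also: IS621 bridge recombinase in Escherichia coli cells against a fixed T5 target plasmid.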

“GTTCGAACATGGACCGGTTTTCCCGGTAATCCGTATTTGCA (site GTTCGACCTTG)” and “GTTCGAACATGGACCGGTTTTCCCGGTAATCCGTATTTGCA (site GTTCGAGCTTG)” are within 0.2 log units of each other in “recombinant UMI read abundance (log10)” value: 0 for the first, 0.00306 for the second.

Going from “GTTCGAACATGGACCGGTTTTCCCGGTAATCCGTATTTGCA (site GTTCGATCTTG)” to “GTTCGACCATGGACCGGTTTTCCCGGTAATCCGTATTTGCA (site GTTCGAACTTG)”, the “recombinant UMI read abundance (log10)” value falls from 0.448 to 0.

“GTTCGACCATGGACCGGTTTTCCCGGTAATCCGTATTTGCA (site GTTCGACCTTG)” and “GTTCGACCATGGACCGGTTTTCCCGGTAATCCGTATTTGCA (site GTTCGAGCTTG)” are the same in “recombinant UMI read abundance (log10)” value: 0 for the first, 0 for the second.

First: GTTCGACCATGGACCGGTTTTCCCGGTAATCCGTATTTGCA (site GTTCGATCTTG)
Second: GTTCGCGCATGGACCGGTTTTCCCGGTAATCCGTATTTGCA (site GTTCGAGCTTG)
The “recombinant UMI read abundance (log10)” value of the first is lower: 0 for the first, 0.394 for the second.

First: GTTCGCGCATGGACCGGTTTTCCCGGTAATCCGTATTTGCA (site GTTCGCGCTTG)
Second: GTTCGCGCATGGACCGGTTTTCCCGGTAATCCGTATTTGCA (site GTTCGGGCTTG)
The “recombinant UMI read abundance (log10)” value of the first is higher: 2.03 for the first, 0 for the second.

Going from “GTTCGCGCATGGACCGGTTTTCCCGGTAATCCGTATTTGCA (site GTTCGTGCTTG)” to “GTTCGGGCATGGACCGGTTTTCCCGGTAATCCGTATTTGCA (site GTTCGAGCTTG)”, the “recombinant UMI read abundance (log10)” value rises from 0.00559 to 1.27.

Going from “GTTCGGGCATGGACCGGTTTTCCCGGTAATCCGTATTTGCA (site GTTCGCGCTTG)” to “GTTCGGGCATGGACCGGTTTTCCCGGTAATCCGTATTTGCA (site GTTCGGGCTTG)”, the “recombinant UMI read abundance (log10)” value rises from 0 to 2.23.

Compared with “GTTCGGGCATGGACCGGTTTTCCCGGTAATCCGTATTTGCA (site GTTCGTGCTTG)”, “GTTCGTACATGGACCGGTTTTCCCGGTAATCCGTATTTGAC (site GTTCGTACTGT)” is higher in “recombinant UMI read abundance (log10)” value: 0.33 for the first, 1.54 for the second.

“GTTCGTACATGGACCGGTTTTCCCGGTAATCCGTATTTGGG (site GTTCGTACTCC)” and “GTTCTATCATGGACCGGTTTTCCCGGTAATCCGTATTTGGT (site GTTCTATCTAC)” are within 0.2 log units of each other in “recombinant UMI read abundance (log10)” value: 0.0129 for the first, 0 for the second.

“GTTCTTCCATGGACCGGTTTTCCCGGTAATCCGTATTTGGT (site GTTATTCCTAC)” and “GTTCTTCCATGGACCGGTTTTCCCGGTAATCCGTATTTGGT (site GTTCTTCCTAC)” are within 0.2 log units of each other in “recombinant UMI read abundance (log10)” value: 0.00339 for the first, 0.00538 for the second.

“GTTCTTCCATGGACCGGTTTTCCCGGTAATCCGTATTTGGT (site GTTGTTCCTAC)” and “GTTCTTCCATGGACCGGTTTTCCCGGTAATCCGTATTTGGT (site GTTTTTCCTAC)” are within 0.2 log units of each other in “recombinant UMI read abundance (log10)” value: 0.0119 for the first, 0 for the second.

“GTTGAGACATGGACCGGTTTTCCCGGTAATCCGTATTTGGT (site ATTGAGACTAC)” and “GTTGAGACATGGACCGGTTTTCCCGGTAATCCGTATTTGGT (site CTTGAGACTAC)” are within 0.2 log units of each other in “recombinant UMI read abundance (log10)” value: 0.953 for the first, 0.883 for the second.

“GTTGAGACATGGACCGGTTTTCCCGGTAATCCGTATTTGGT (site GTTGAGACTAC)” and “GTTGAGACATGGACCGGTTTTCCCGGTAATCCGTATTTGGT (site TTTGAGACTAC)” are within 0.2 log units of each other in “recombinant UMI read abundance (log10)” value: 0.775 for the first, 0.683 for the second.

First: GTTGATGCATGGACCGGTTTTCCCGGTAATCCGTATTTGAC (site GTTGATGCTGT)
Second: GTTGCGTCATGGACCGGTTTTCCCGGTAATCCGTATTTGGC (site GTTGCGTCTGC)
The “recombinant UMI read abundance (log10)” value of the first is lower: 2.12 for the first, 2.41 for the second.

Compared with “GTTGCGTCATGGACCGGTTTTCCCGGTAATCCGTATTTGGT (site GTTGCGTCTAC)”, “GTTGTATCATGGACCGGTTTTCCCGGTAATCCGTATTTGAC (site CTAGTATCTGT)” is higher in “recombinant UMI read abundance (log10)” value: 0.923 for the first, 1.45 for the second.

Compared with “GTTGTATCATGGACCGGTTTTCCCGGTAATCCGTATTTGAC (site GTTGTATCTGT)”, “GTTGTCCCATGGACCGGTTTTCCCGGTAATCCGTATTTGGT (site GTTGTACCTAC)” is lower in “recombinant UMI read abundance (log10)” value: 2.18 for the first, 0.00965 for the second.

“GTTGTCCCATGGACCGGTTTTCCCGGTAATCCGTATTTGGT (site GTTGTCCCTAC)” and “GTTGTCCCATGGACCGGTTTTCCCGGTAATCCGTATTTGGT (site GTTGTGCCTAC)” are within 0.2 log units of each other in “recombinant UMI read abundance (log10)” value: 0.0143 for the first, 0.0145 for the second.

“GTTGTCCCATGGACCGGTTTTCCCGGTAATCCGTATTTGGT (site GTTGTTCCTAC)” and “GTTGTCGCATGGACCGGTTTTCCCGGTAATCCGTATTTGCG (site GTAGTCGCTCG)” are within 0.2 log units of each other in “recombinant UMI read abundance (log10)” value: 0 for the first, 0.0153 for the second.

“GTTGTCGCATGGACCGGTTTTCCCGGTAATCCGTATTTGCG (site GTCGTCGCTCG)” and “GTTGTCGCATGGACCGGTTTTCCCGGTAATCCGTATTTGCG (site GTGGTCGCTCG)” are within 0.2 log units of each other in “recombinant UMI read abundance (log10)” value: 0.00886 for the first, 0.009 for the second.

“GTTGTCGCATGGACCGGTTTTCCCGGTAATCCGTATTTGCG (site GTTGTCGCTCG)” and “GTTGTTACATGGACCGGTTTTCCCGGTAATCCGTATTTGGT (site GTTGTTACTAC)” are within 0.2 log units of each other in “recombinant UMI read abundance (log10)” value: 0.974 for the first, 1.07 for the second.

“GTTGTTACATGGACCGGTTTTCCCGGTAATCCGTATTTGGT (site GTTGTTCCTAC)” and “GTTGTTACATGGACCGGTTTTCCCGGTAATCCGTATTTGGT (site GTTGTTGCTAC)” are within 0.2 log units of each other in “recombinant UMI read abundance (log10)” value: 0 for the first, 0.0188 for the second.

“GTTGTTACATGGACCGGTTTTCCCGGTAATCCGTATTTGGT (site GTTGTTTCTAC)” and “GTTGTTCCATGGACCGGTTTTCCCGGTAATCCGTATTTGAT (site GTTGTTCCTAA)” are within 0.2 log units of each other in “recombinant UMI read abundance (log10)” value: 0 for the first, 0.0147 for the second.

“GTTGTTCCATGGACCGGTTTTCCCGGTAATCCGTATTTGAT (site GTTGTTCCTAC)” and “GTTGTTCCATGGACCGGTTTTCCCGGTAATCCGTATTTGAT (site GTTGTTCCTAG)” are within 0.2 log units of each other in “recombinant UMI read abundance (log10)” value: 0.00806 for the first, 0 for the second.

“GTTGTTCCATGGACCGGTTTTCCCGGTAATCCGTATTTGAT (site GTTGTTCCTAT)” and “GTTGTTCCATGGACCGGTTTTCCCGGTAATCCGTATTTGCT (site GTTGTTCCTAA)” are within 0.2 log units of each other in “recombinant UMI read abundance (log10)” value: 0.00518 for the first, 0.0109 for the second.

“GTTGTTCCATGGACCGGTTTTCCCGGTAATCCGTATTTGCT (site GTTGTTCCTAC)” and “GTTGTTCCATGGACCGGTTTTCCCGGTAATCCGTATTTGCT (site GTTGTTCCTAG)” are within 0.2 log units of each other in “recombinant UMI read abundance (log10)” value: 0.0126 for the first, 0 for the second.

“GTTGTTCCATGGACCGGTTTTCCCGGTAATCCGTATTTGCT (site GTTGTTCCTAT)” and “GTTGTTCCATGGACCGGTTTTCCCGGTAATCCGTATTTGGC (site GTTGTTCCTAC)” are within 0.2 log units of each other in “recombinant UMI read abundance (log10)” value: 0.00476 for the first, 0.00298 for the second.

“GTTGTTCCATGGACCGGTTTTCCCGGTAATCCGTATTTGGC (site GTTGTTCCTCC)” and “GTTGTTCCATGGACCGGTTTTCCCGGTAATCCGTATTTGGC (site GTTGTTCCTGC)” are within 0.2 log units of each other in “recombinant UMI read abundance (log10)” value: 0.0108 for the first, 0 for the second.

“GTTGTTCCATGGACCGGTTTTCCCGGTAATCCGTATTTGGC (site GTTGTTCCTTC)” and “GTTGTTCCATGGACCGGTTTTCCCGGTAATCCGTATTTGGG (site GTTGTTCCTAC)” are within 0.2 log units of each other in “recombinant UMI read abundance (log10)” value: 0.0051 for the first, 0.0139 for the second.

“GTTGTTCCATGGACCGGTTTTCCCGGTAATCCGTATTTGGG (site GTTGTTCCTCC)” and “GTTGTTCCATGGACCGGTTTTCCCGGTAATCCGTATTTGGG (site GTTGTTCCTGC)” are within 0.2 log units of each other in “recombinant UMI read abundance (log10)” value: 0.0029 for the first, 0 for the second.

“GTTGTTCCATGGACCGGTTTTCCCGGTAATCCGTATTTGGG (site GTTGTTCCTTC)” and “GTTTAACCATGGACCGGTTTTCCCGGTAATCCGTATTTGGT (site GTTTAACCTAC)” are within 0.2 log units of each other in “recombinant UMI read abundance (log10)” value: 0.00718 for the first, 0.00474 for the second.

First: GTTTACCCATGGACCGGTTTTCCCGGTAATCCGTATTTGGG (site GTTTACCCTCC)
Second: GTTTATTCATGGACCGGTTTTCCCGGTAATCCGTATTTGCT (site GTTTATTCTAG)
The “recombinant UMI read abundance (log10)” value of the first is lower: 0.00501 for the first, 1.99 for the second.

Compared with “GTTTATTCATGGACCGGTTTTCCCGGTAATCCGTATTTGGT (site GTTTATTCTAC)”, “GTTTCGGCATGGACCGGTTTTCCCGGTAATCCGTATTTGGT (site GTTTCGGCTAC)” is lower in “recombinant UMI read abundance (log10)” value: 1.61 for the first, 0.282 for the second.

“GTTTGCCCATGGACCGGTTTTCCCGGTAATCCGTATTTGAT (site GATTGCCCTAT)” and “GTTTGCCCATGGACCGGTTTTCCCGGTAATCCGTATTTGAT (site GCTTGCCCTAT)” are within 0.2 log units of each other in “recombinant UMI read abundance (log10)” value: 0.00963 for the first, 0.0198 for the second.

“GTTTGCCCATGGACCGGTTTTCCCGGTAATCCGTATTTGAT (site GGTTGCCCTAT)” and “GTTTGCCCATGGACCGGTTTTCCCGGTAATCCGTATTTGAT (site GTTTGCCCTAT)” are within 0.2 log units of each other in “recombinant UMI read abundance (log10)” value: 0.018 for the first, 0.0181 for the second.

Going from “GTTTGCGCATGGACCGGTTTTCCCGGTAATCCGTATTTGTC (site GTTTGCGCTGA)” to “TAAACAACATGGACCGGTTTTCCCGGTAATCCGTATTTGTA (site TAAACAACTTA)”, the “recombinant UMI read abundance (log10)” value falls from 1.54 to 0.815.

First: TAAACCACATGGACCGGTTTTCCCGGTAATCCGTATTTGAT (site TAAACCACTAT)
Second: TAAAGTCCATGGACCGGTTTTCCCGGTAATCCGTATTTGCA (site TAAAGTCCTTA)
The “recombinant UMI read abundance (log10)” value of the first is higher: 1.3 for the first, 0.00275 for the second.

Going from “TAAAGTCCATGGACCGGTTTTCCCGGTAATCCGTATTTGCA (site TAAAGTCCTTC)” to “TAAAGTCCATGGACCGGTTTTCCCGGTAATCCGTATTTGCA (site TAAAGTCCTTG)”, the “recombinant UMI read abundance (log10)” value rises from 0.00901 to 1.07.

For “TAAAGTCCATGGACCGGTTTTCCCGGTAATCCGTATTTGCA (site TAAAGTCCTTT)”, the “recombinant UMI read abundance (log10)” value was 0.
